As usually defined, the EC50 is the concentration needed to bring the measured effect to its halfway point. As usually defined, the T/C is the ratio of treated to control.

Several values for one entry are separate records, joined by “and”; a condition that tells them apart may be missing. Equal entries are not always repeated.

The test system of assay [1] is HCT-116. The assay is described as follows: Cytotoxicity against human HCT116 cells. The assay is classed as functional, cell-based.
Assay [2] deals with Histone deacetylase. The assay is described as follows: Inhibition of histone deacetylase in human HeLa cells assessed as induction of histone H3 hyperacetylation. The assay is classed as cell-based.
Assay [3] relates to HCT-116. The assay is described as follows: Antitumor activity against human HCT116 cells xenografted in nude mouse at 50 mg/kg, po administered once a day for 14 days relative to control. The assay is classed as functional.

Turning to `CC(=O)SCC(=O)c1ccc(NS(=O)(=O)c2ccc3c(c2)NCC3)cc1`, the figures for the EC50 in assay [1] and in assay [2] were 3300 nM and 47 nM, respectively.

With `CC(=O)SCC(=O)c1ccc(NS(=O)(=O)c2ccc(C(F)(F)F)cc2)cc1`, the EC50 in assay [2] turned out to be 2100 nM.

For `CC(=O)SCC(=O)c1ccc(NS(=O)(=O)c2ccc3c(c2)CCO3)nc1`, the EC50 was found to be 6400 nM in assay [1] and 95 nM in assay [2]. As for `CC(=O)SCC(=O)c1ccc(NS(=O)(=O)c2ccc(F)cc2)cc1`, the EC50 in assay [2] amounted to 950 nM.

Regarding `COc1ccc(S(=O)(=O)Nc2ccc(C(=O)CSC(C)=O)cc2)cc1`, the values for the EC50 in assay [1] and in assay [2] were 500 nM and 50 nM, respectively. For `CC(=O)SCC(=O)c1ccc(NS(=O)(=O)c2ccc3ccccc3c2)nc1` the same measures were 4900 nM and 42 nM. For `CC(=O)SCC(=O)c1ccc(NS(=O)(=O)c2ccc3c(c2)CCO3)cc1` the same measures were 3200 nM and 82 nM. For `CC(=O)SCC(=O)c1ccc(NS(=O)(=O)c2ccc3c(c2)OCCN3C)cc1` the same measures were 2600 nM and 100 nM. In the case of `CC(=O)SCC(=O)c1ccc(NS(=O)(=O)c2ccc3[nH]ccc3c2)cc1`, the values for the EC50 in assay [1] and in assay [2] were 1500 nM and 59 nM, respectively. In the case of `CC(=O)SCC(=O)c1ccc(NS(=O)(=O)c2cccc(Cl)c2)cc1`, in assay [2], the EC50 stood at 150 nM. Take `CC(=O)SCC(=O)c1ccc(NS(=O)(=O)c2ccc3ccccc3c2)cc1`: the EC50 in assay [1] was determined as 2600 nM; in assay [2], 29 nM. As for `CC(=O)SCC(=O)c1ccc(NS(=O)(=O)c2ccc3c(c2)ncn3C)cc1`, the EC50 is 1800 nM in assay [1]; 79 nM and 38 nM in assay [2]. In the case of `CC(=O)SCC(=O)c1ccc(NS(=O)(=O)c2ccc(C)cc2)cc1`, the EC50 in assay [1] worked out at 6500 nM; in assay [2], 100 nM. On to `CC(=O)SCC(=O)c1ccc(NS(=O)(=O)c2ccccc2Cl)cc1`, for which, in assay [2], the EC50 was 850 nM. Consider `CC(=O)SCC(=O)c1ccc(NS(=O)(=O)c2ccc3c(c2)OCO3)cc1`, for which the concentration for a half-maximal effect (EC50) in assay [1] amounted to 1400 nM; in assay [2] it was 88 nM. Take `CC(=O)SCC(=O)c1ccc(C(=O)Nc2ccc(OC(F)(F)F)cc2)cc1`: the EC50 in assay [2] is 67100 nM. As to `CC(=O)SCC(=O)c1ccc(NS(=O)(=O)c2ccc3c(c2)ncn3C)nc1`, the values for the concentration for a half-maximal effect (EC50) in assay [1] and in assay [2] were 4900 nM and 240 nM, respectively. For `CC(=O)SCC(=O)c1ccc(S(=O)(=O)Nc2ccc(OC(F)(F)F)cc2)cc1` the same measures were 16100 nM and 1000 nM. The corresponding values for `CC(=O)SCC(=O)c1ccc(NS(=O)(=O)c2ccc(Cl)cc2)cc1` are 30800 nM and 280 nM.

In the case of `CC(=O)SCC(=O)c1ccc(NS(=O)(=O)c2ccc3c(c2)N(C(C)=O)CC3)cc1`, the EC50 was 4600 nM in assay [1] and 91 nM in assay [2]. For `CC(=O)SCC(=O)c1ccc(NS(=O)(=O)c2ccc3c(c2)CCN3)cc1` the same measures were 1100 nM and 160 nM. For `CC(=O)SCC(=O)c1ccc(NS(=O)(=O)c2ccccc2)cc1` the same measures were 15400 nM and 330 nM. With `CC(=O)SCC(=O)c1ccc(NC(=O)Nc2ccc(OC(F)(F)F)cc2)cc1`, the concentration for a half-maximal effect (EC50) in assay [2] stood at 11200 nM. Turning to `CC(=O)SCC(=O)c1ccc(NS(=O)(=O)c2ccc3cc[nH]c3c2)cc1`, the EC50 in assay [1] turned out to be 600 nM; in assay [2] it was 44 nM. `CC(=O)SCC(=O)c1ccc(N(C)S(=O)(=O)c2ccc(OC(F)(F)F)cc2)cc1`: in assay [2], the EC50 came to 4300 nM. In the case of `CC(=O)SCC(=O)c1ccc(NS(=O)(=O)c2ccc3c(c2)OCCO3)cc1`, the EC50 in assay [1] is 400 nM; in assay [2] it was 26 nM. This molecule also returned a T/C in assay [3] of 87%.

For `CC(=O)SCC(=O)c1ccc(NS(=O)(=O)c2ccc3c(c2)OCCN3C)nc1`, the EC50 in assay [1] was found to be 9600 nM; in assay [2], 150 nM. With `CC(=O)SCC(=O)c1ccc(NS(=O)(=O)c2ccc3c(c2)OCO3)nc1`, the EC50 in assay [1] stood at 5500 nM; in assay [2], 360 nM. For `CC(=O)SCC(=O)c1ccc(NS(=O)(=O)c2ccccc2)nc1` the same measures were 5300 nM and 150 nM.

On to `COc1cccc(S(=O)(=O)Nc2ccc(C(=O)CSC(C)=O)cc2)c1`, for which the figures for the EC50 in assay [1] and in assay [2] were 2600 nM and 170 nM, respectively. In the case of `CC(=O)SCC(=O)c1ccc(NS(=O)(=O)c2cccc(OC(F)(F)F)c2)cc1`, the half-maximal effective concentration (EC50) in assay [2] was found to be 790 nM. For `CC(=O)SCC(=O)c1ccc(NCc2ccc(OC(F)(F)F)cc2)cc1`, the EC50 in assay [2] turned out to be 1500 nM. As to `CC(=O)SCC(=O)c1ccc(NS(=O)(=O)c2ccc(OC(F)(F)F)cc2)cc1`, the EC50 turned out to be 8800 nM in assay [1] and 200 nM in assay [2]. Regarding `CC(=O)SCC(=O)c1ccc(NS(=O)(=O)c2ccc(Cl)c(Cl)c2)cc1`, the EC50 in assay [2] turned out to be 420 nM. On to `COc1ccc(S(=O)(=O)Nc2ccc(C(=O)CSC(C)=O)cc2)cc1OC`, for which the figures for the EC50 in assay [1] and in assay [2] were 3200 nM and 280 nM, respectively. For `CC(=O)SCC(=O)c1ccc(NS(=O)(=O)c2cccc(F)c2)cc1`, the 50% effective concentration (EC50) in assay [2] was 460 nM.

Values taken from ChEMBL document CHEMBL1141002, “Alpha-mercaptoketone based histone deacetylase inhibitors” (Bioorg Med Chem Lett, 2008).
